From patent US8835472B2, “Compounds, pharmaceutical compositions and uses thereof” (Boehringer Ingelheim International GmbH, priority 2010, dated 2014)

What follows are compounds tested against human ACC2 (Homo sapiens (Human), UniProt O00763) (assay: ACC2 assay, spectrophotometric 384 well assay (NADH-linked, coupled lactate dehydrogenase/pyruvate kinase reaction)). Conditions: hACC2 construct lacking the 128 N-terminal amino acids; 25° C., 340 nm over 15 minutes.
Format: biochemical
Experimental: Spectrophotometric 384 Well Assay
Malonyl CoA formation by acetyl CoA carboxylases is stoichometrically linked to the consumption of ATP. ACC2 activity is measured in a NADH-linked kinetic method measuring ADP generated during the ACC reaction using a coupled lactate dehydrogenase/pyruvate kinase reaction.
For biological testing, a human ACC2 construct which lacks the 128 amino acids at the N-terminus for increased solubility (nt 385-6966 in Genbank entry AJ575592) is cloned. The protein is then expressed in insect cells using a baculoviral expression system. Protein purification is performed by anion exchange.
All compounds are dissolved in dimethyl sulfoxide (DMSO) to a concentration of 10 mM.
Assay reactions are then carried out in 384-well plates, with hACC2 in an appropriate dilution and at final assay concentrations (f.c.) of 100 mM Tris (pH 7.5), 10 mM trisodium citrate, 25 mM KHCO3, 10 mM MgCl2, 0.5 mg/mL BSA, 3.75 mM reduced L-glutathione, 15 U/mL lactate dehydrogenase, 0.5 mM phosphoenolpyruvate, 15 U/mL pyruvate kinase, compounds at different concentrations at final DMSO concentrations of 1%.
The enzymatic reaction is then started by addition of a mixture of NADH, acetyl Coenzyme A (both 200 μM f.c.) and ATP (500 uM f.c.). The decrease of the optical density (slope S) is then determined at 25° C. at a wavelength of 340 nm over 15 minutes in a spectrophotometric reader.
Each assay microtiter plate contains wells with vehicle instead of compound as controls for the non-inhibited enzyme (100% CTL; ‘HIGH’) and wells without acetyl-CoA as controls for non-specific NADH degradation (0% CTL; ‘LOW’).
The slope S is used for calculation of % CTL=(S(compound)−S(‘LOW’))/(S(‘HIGH’)−S(‘LOW’))*100. Compounds will give values between 100% CTL (no inhibition) and 0% CTL (complete inhibition).
For IC50 value determination, the sample slope in the presence of the test compound after subtraction of the low controls (S(compound)−S(‘LOW’)) are used. An IC50 value is derived from the compound slopes at different dosages after subtraction of the low controls (S(compound)−S(‘LOW’)) by non-linear regression curve fitting (equation y=(A+((B−A)/(1+((C/x)^D))))).

Sequence of human ACC2 (O00763 129-2458): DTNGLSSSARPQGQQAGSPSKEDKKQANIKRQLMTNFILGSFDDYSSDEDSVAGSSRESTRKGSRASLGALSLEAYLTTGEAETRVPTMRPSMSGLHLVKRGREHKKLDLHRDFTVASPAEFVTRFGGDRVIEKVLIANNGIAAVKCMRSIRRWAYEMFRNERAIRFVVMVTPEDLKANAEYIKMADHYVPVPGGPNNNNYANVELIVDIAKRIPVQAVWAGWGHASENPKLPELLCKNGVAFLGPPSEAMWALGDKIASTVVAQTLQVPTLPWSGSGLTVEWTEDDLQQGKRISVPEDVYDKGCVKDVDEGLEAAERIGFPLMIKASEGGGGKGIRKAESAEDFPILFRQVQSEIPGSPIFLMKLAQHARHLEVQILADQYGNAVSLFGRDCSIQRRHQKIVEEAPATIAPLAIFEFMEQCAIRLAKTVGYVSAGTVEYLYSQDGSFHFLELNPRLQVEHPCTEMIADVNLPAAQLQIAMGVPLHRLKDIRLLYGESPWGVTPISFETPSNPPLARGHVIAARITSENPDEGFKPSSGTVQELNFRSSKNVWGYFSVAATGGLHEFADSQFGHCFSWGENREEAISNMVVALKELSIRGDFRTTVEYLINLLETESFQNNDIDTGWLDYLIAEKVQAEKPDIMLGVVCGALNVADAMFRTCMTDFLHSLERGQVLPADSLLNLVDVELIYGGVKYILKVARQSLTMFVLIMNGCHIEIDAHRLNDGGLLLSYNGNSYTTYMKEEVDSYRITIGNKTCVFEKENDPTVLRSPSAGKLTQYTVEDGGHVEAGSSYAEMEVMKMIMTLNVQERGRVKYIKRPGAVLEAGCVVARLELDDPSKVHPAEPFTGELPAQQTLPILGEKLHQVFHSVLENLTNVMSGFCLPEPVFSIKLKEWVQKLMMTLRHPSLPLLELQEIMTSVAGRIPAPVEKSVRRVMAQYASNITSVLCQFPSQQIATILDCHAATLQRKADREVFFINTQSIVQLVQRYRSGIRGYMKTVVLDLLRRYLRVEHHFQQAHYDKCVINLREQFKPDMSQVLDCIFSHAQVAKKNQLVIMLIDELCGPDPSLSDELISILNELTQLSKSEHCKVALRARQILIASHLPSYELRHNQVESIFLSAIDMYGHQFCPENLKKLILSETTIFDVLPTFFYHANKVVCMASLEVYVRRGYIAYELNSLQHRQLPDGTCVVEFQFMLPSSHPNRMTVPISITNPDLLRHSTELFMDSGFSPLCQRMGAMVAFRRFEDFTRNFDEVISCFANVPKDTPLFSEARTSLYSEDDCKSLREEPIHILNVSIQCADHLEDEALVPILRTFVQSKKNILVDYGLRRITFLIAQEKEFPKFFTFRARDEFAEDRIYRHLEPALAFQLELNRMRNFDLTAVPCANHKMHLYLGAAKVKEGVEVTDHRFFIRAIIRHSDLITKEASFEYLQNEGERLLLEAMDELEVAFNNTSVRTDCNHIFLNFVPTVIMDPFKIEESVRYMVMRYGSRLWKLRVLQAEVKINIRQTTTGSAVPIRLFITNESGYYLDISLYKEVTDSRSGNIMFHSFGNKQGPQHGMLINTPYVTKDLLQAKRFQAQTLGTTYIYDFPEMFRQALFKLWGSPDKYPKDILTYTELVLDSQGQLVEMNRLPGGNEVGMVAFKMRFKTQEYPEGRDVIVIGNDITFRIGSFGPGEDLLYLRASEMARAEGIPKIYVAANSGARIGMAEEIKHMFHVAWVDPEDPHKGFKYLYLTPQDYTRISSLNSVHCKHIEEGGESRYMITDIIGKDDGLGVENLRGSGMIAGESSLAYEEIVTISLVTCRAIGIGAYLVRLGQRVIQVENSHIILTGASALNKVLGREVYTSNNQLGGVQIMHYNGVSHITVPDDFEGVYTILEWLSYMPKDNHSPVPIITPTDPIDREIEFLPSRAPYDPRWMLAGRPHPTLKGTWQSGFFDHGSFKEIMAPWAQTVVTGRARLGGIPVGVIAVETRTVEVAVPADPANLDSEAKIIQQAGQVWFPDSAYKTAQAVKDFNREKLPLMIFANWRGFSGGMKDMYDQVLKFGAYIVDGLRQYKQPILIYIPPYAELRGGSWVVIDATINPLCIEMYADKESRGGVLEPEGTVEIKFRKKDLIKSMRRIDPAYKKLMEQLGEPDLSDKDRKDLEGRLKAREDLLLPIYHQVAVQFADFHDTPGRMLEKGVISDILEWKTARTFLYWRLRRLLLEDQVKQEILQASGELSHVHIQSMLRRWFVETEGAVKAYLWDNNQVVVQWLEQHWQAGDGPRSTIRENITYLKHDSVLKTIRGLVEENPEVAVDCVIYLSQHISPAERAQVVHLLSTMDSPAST

| SMILES | IC50 |
| --- | --- |
| COc1ccc(C#Cc2ccc(CC(C)NC(=O)C3CC3)cc2)cc1OC (stereo not drawn) [Example 2.71] | 3400 nM |
| CC(=O)NC(C)Cc1ccc(C#Cc2cnc3ccccc3c2)cc1 (stereo not drawn) [Example 2.72] | 910 nM |
| CC(=O)NC(C)Cc1ccc(C#Cc2ccc(N3CCOCC3)cc2)cc1 (stereo not drawn) [Example 2.73] | 640 nM |
| CC(=O)NC(C)Cc1ccc(C#Cc2ccc3ncccc3c2)cc1 (stereo not drawn) [Example 2.74] | 1100 nM |
| CC(=O)NC(C)Cc1ccc(C#Cc2ccc(OC(C)(C)C)cc2)cc1 (stereo not drawn) [Example 2.75] | 100 nM |
| CC(=O)NC(C)Cc1ccc(C#Cc2ccc3c(c2)CCC3=O)cc1 (stereo not drawn) [Example 2.76] | 5800 nM |
| CC(=O)NC(C)Cc1ccc(C#Cc2ccc(Oc3ccccc3)nn2)cc1 (stereo not drawn) [Example 2.77] | 1500 nM |
| CC(=O)NC(C)Cc1ccc(C#Cc2cc(OCc3ccccc3)ncn2)cc1 (stereo not drawn) [Example 2.78] | 750 nM |
| CC(=O)NC(C)Cc1ccc(C#Cc2cnn(-c3ccccc3)c2)cc1 (stereo not drawn) [Example 2.79] | 450 nM |
| CC(=O)NC(C)Cc1ccc(C#Cc2ccc(C3CC3)cn2)cc1 (stereo not drawn) [Example 2.80] | 740 nM |
| CC(=O)NC(C)Cc1ccc(C#Cc2cc(C)c3c(c2)oc(=O)n3C)cc1 (stereo not drawn) [Example 2.81] | 4000 nM |
| CC(=O)NC(C)Cc1ccc(C#Cc2ccn(CC(C)C)c(=O)c2)cc1 (stereo not drawn) [Example 2.82] | 1600 nM |
| COCCn1ccc(C#Cc2ccc(CC(C)NC(C)=O)cc2)cc1=O (stereo not drawn) [Example 2.83] | 17700 nM |
| CC(=O)NC(C)Cc1ccc(C#Cc2ccn(C(C)C)c(=O)c2)cc1 (stereo not drawn) [Example 2.84] | 5800 nM |
| CCCCn1ccc(C#Cc2ccc(CC(C)NC(C)=O)cc2)cc1=O (stereo not drawn) [Example 2.85] | 1100 nM |
| CC(=O)NC(C)Cc1ccc(C#Cc2ccc(OC(C)C)nn2)cc1 (stereo not drawn) [Example 2.86] | 930 nM |
| CCn1ccc(C#Cc2ccc(CC(C)NC(C)=O)cc2)cc1=O (stereo not drawn) [Example 2.87] | 12900 nM |
| CCCCOc1ccc(C#Cc2ccc(CC(C)NC(C)=O)cc2)nn1 (stereo not drawn) [Example 2.88] | 880 nM |
| COCCOc1ccc(C#Cc2ccc(CC(C)NC(C)=O)cc2)nn1 (stereo not drawn) [Example 2.89] | 16400 nM |
| CCCOc1ccc(C#Cc2ccc(CC(C)NC(C)=O)cc2)c(C(N)=O)c1 (stereo not drawn) [Example 2.90] | 5200 nM |
| CC(=O)NC(C)Cc1ccc(C#Cc2ccnc(Oc3cncnc3)c2)cc1 (stereo not drawn) [Example 2.91] | 400 nM |
| CCCOc1ccc(C#Cc2ccc(CC(C)NC(C)=O)cc2)c(C#N)c1 (stereo not drawn) [Example 2.92] | 170 nM |
| CCCOc1ccc(C#Cc2ccc(CC(C)NC(C)=O)cc2)c(Cl)c1 (stereo not drawn) [Example 2.93] | 80 nM |
| COc1cc(C#Cc2ccc(CC(C)NC(C)=O)cc2)ccn1 (stereo not drawn) [Example 2.94] | 260 nM |
| CCCOc1ccc(C#Cc2ccc(CC(C)NC(C)=O)cc2)c(C)c1 (stereo not drawn) [Example 2.95] | 110 nM |
| CCCCOc1cc(C#Cc2ccc(CC(C)NC(C)=O)cc2)ccn1 (stereo not drawn) [Example 2.96] | 130 nM |

| SMILES | IC50 |
| --- | --- |
| CC(=O)NC(C)Cc1ccc(C#Cc2ccnc(OC(C)C)c2)cc1 (stereo not drawn) [Example 2.97] | 140 nM |
| CC(=O)NC(C)Cc1ccc(C#Cc2ccnc(Oc3ccccc3)c2)cc1 (stereo not drawn) [Example 2.98] | 150 nM |
| CC(=O)NC(C)Cc1ccc(C#Cc2ncc(Cl)cn2)cc1 (stereo not drawn) [Example 2.99] | 7400 nM |
| CC(=O)NC(C)Cc1ccc(C#Cc2ccc(OC3CC3)cc2)cc1 (stereo not drawn) [Example 2.100] | 120 nM |
| CSc1ccc(C#Cc2ccc(C(C)NC(C)=O)cc2)cc1 (stereo not drawn) [Example 2.101] | 350 nM |
| CCOc1cc(C#Cc2ccc(C(C)NC(C)=O)cc2)ccn1 (stereo not drawn) [Example 2.102] | 580 nM |
| CC(=O)NC(C)c1ccc(C#Cc2cccc(OCc3ccccc3)c2)cc1 (stereo not drawn) [Example 2.103] | 500 nM |
| COc1ccc(C#Cc2ccc(C(C)NC(C)=O)cc2)cc1 (stereo not drawn) [Example 2.104] | 1500 nM |
| CC(=O)NC(C)c1ccc(C#Cc2cnn(Cc3ccccc3)c2)cc1 (stereo not drawn) [Example 2.105] | 930 nM |
| CC(=O)NC(C)Cc1ccc(C#Cc2c(C)noc2C)cc1 (stereo not drawn) [Example 2.106] | 8200 nM |
| CC(=O)NC(C)Cc1ccc(C#Cc2cnn(C)c2)cc1 (stereo not drawn) [Example 2.107] | 4900 nM |
| CC(=O)NC(C)Cc1ccc(C#Cc2cnn(Cc3ccccc3)c2)cc1 (stereo not drawn) [Example 2.108] | 300 nM |
| COCc1ccc(C#Cc2ccc(CC(C)NC(C)=O)cc2)cc1 (stereo not drawn) [Example 2.109] | 790 nM |
| CC(=O)NC(C)Cc1ccc(C#Cc2ccc(C)cc2Cl)cc1 (stereo not drawn) [Example 3.2] | 270 nM |
| COc1cc(C#Cc2ccc(CC(C)NC(C)=O)cc2)ccc1Cl (stereo not drawn) [Example 3.3] | 1300 nM |
| COc1c(F)cc(C#Cc2ccc(CC(C)NC(C)=O)cc2)cc1F (stereo not drawn) [Example 3.4] | 560 nM |
| CC(=O)NC(C)Cc1ccc(C#Cc2ccc3cc[nH]c3c2)cc1 (stereo not drawn) [Example 3.5] | 660 nM |
| CC(=O)NC(C)Cc1ccc(C#Cc2ccc(Cl)c(C#N)c2)cc1 (stereo not drawn) [Example 3.6] | 2300 nM |
| CC(=O)NC(C)Cc1ccc(C#Cc2cc3c(cc2C#N)OCO3)cc1 (stereo not drawn) [Example 3.7] | 10600 nM |
| COc1ccc(Cl)c(C#Cc2ccc(CC(C)NC(C)=O)cc2)c1 (stereo not drawn) [Example 3.8] | 690 nM |
| CC(=O)NC(C)Cc1ccc(C#Cc2ccnc(OCc3ccccc3)c2)cc1 (stereo not drawn) [Example 3.9] | 260 nM |
| COC(=O)c1cc(C#Cc2ccc(CC(C)NC(C)=O)cc2)ccn1 (stereo not drawn) [Example 3.10] | 4500 nM |
| COc1ccc(C#Cc2ccc(CC(C)NC(C)=O)cc2)nc1 (stereo not drawn) [Example 3.11] | 4300 nM |
| COc1ccc(C#Cc2ccc(CC(C)NC(C)=O)cc2)c(C#N)c1 (stereo not drawn) [Example 3.12] | 1200 nM |
| CC(=O)NC(C)Cc1ccc(C#Cc2cccc(N(C)C)n2)cc1 (stereo not drawn) [Example 3.13] | 1700 nM |
| CC(=O)NC(C)Cc1ccc(C#Cc2ccc3c(c2)OCCO3)cc1 (stereo not drawn) [Example 3.14] | 220 nM |

| SMILES | IC50 |
| --- | --- |
| COc1ccc(C#Cc2ccc(CC(C)NC(C)=O)cc2)c(Cl)c1 (stereo not drawn) [Example 3.15] | 350 nM |
| CC(=O)NC(C)Cc1ccc(C#Cc2nccs2)cc1 (stereo not drawn) [Example 3.16] | 4700 nM |
| COC(=O)c1ccc(C#Cc2ccc(CC(C)NC(C)=O)cc2)o1 (stereo not drawn) [Example 3.17] | 880 nM |
| CCCC(=O)NC(C)Cc1ccc(C#Cc2ccc(OCC)cc2)cc1 (stereo not drawn) [Example 4.1, N-(1-(4-((4-ethoxyphenyl)ethynyl)phenyl)propan-2-yl)butyramide] | 210 nM |
| CCOc1ccc(C#Cc2ccc(CC(C)NC(=O)C(C)C)cc2)cc1 (stereo not drawn) [Example 4.2] | 190 nM |
| C/C=C/C(=O)NC(C)Cc1ccc(C#Cc2ccc(OCC)cc2)cc1 (stereo not drawn) [Example 4.3] | 220 nM |
| CCOc1ccc(C#Cc2ccc(CC(C)NC(=O)C3CC3)cc2)cc1 (stereo not drawn) [Example 4.4] | 150 nM |
| CCOc1ccc(C#Cc2ccc(CC(C)NC(=O)C(C)O)cc2)cc1 (stereo not drawn) [Example 4.5] | 1500 nM |
| CCOc1ccc(C#Cc2ccc(CC(C)NC(=O)COC)cc2)cc1 (stereo not drawn) [Example 4.6] | 970 nM |
| CCOc1ccc(C#Cc2ccc(CC(C)NC(=O)CC)cc2)cc1 (stereo not drawn) [Example 4.7] | 120 nM |
| C=CC(=O)NC(C)Cc1ccc(C#Cc2ccc(OCC)cc2)cc1 (stereo not drawn) [Example 4.8] | 460 nM |
| CCOc1ccc(C#Cc2ccc(CC(C)NC(=O)CC#N)cc2)cc1 (stereo not drawn) [Example 4.9] | 400 nM |
| CCOc1ccc(C#Cc2ccc(CC(C)NC(=O)CN(C)C)cc2)cc1 (stereo not drawn) [Example 4.10] | 1100 nM |
| CCOc1ccc(C#Cc2ccc(CC(C)NC(=O)CCOC)cc2)cc1 (stereo not drawn) [Example 4.11] | 1400 nM |
| CCOc1ccc(C#Cc2ccc(CC(C)NC(=O)C3(O)CC3)cc2)cc1 (stereo not drawn) [Example 4.12] | 560 nM |
| CCOc1ccc(C#Cc2ccc(CC(C)NC(=O)CCC#N)cc2)cc1 (stereo not drawn) [Example 4.13] | 680 nM |
| CCOc1ccc(C#Cc2ccc(CC(C)NC(=O)c3cncnc3)cc2)cc1 (stereo not drawn) [Example 4.14] | 1200 nM |
| CCOc1ccc(C#Cc2ccc(CC(C)NC(=O)CS(C)(=O)=O)cc2)cc1 (stereo not drawn) [Example 4.15] | 780 nM |
| CCOc1ccc(C#Cc2ccc(CC(C)NC(=O)c3cc[nH]n3)cc2)cc1 (stereo not drawn) [Example 4.16] | 1600 nM |
| CCOc1ccc(C#Cc2ccc(CC(C)NC(=O)C=C(C)C)cc2)cc1 (stereo not drawn) [Example 4.17] | 470 nM |
| CCOc1ccc(C#Cc2ccc(CC(C)NC(=O)CCO)cc2)cc1 (stereo not drawn) [Example 4.18] | 460 nM |
| CCOc1ccc(C#Cc2ccc(CC(C)NC(=O)c3ccccc3)cc2)cc1 (stereo not drawn) [Example 4.19] | 2800 nM |
| CCOc1ccc(C#Cc2ccc(CC(C)NC(=O)C3CCC3)cc2)cc1 (stereo not drawn) [Example 4.20] | 180 nM |
| CCOc1ccc(C#Cc2ccc(CC(C)NC(=O)C3(C)CC3)cc2)cc1 (stereo not drawn) [Example 4.21] | 140 nM |
| CCOc1ccc(C#Cc2ccc(CC(C)NC(=O)c3ccncc3)cc2)cc1 (stereo not drawn) [Example 4.22] | 930 nM |
| CCOc1ccc(C#Cc2ccc(CC(C)NC(=O)CC(C)C)cc2)cc1 (stereo not drawn) [Example 4.23] | 310 nM |
